From patent US11254640B2, “N-substituted indoles and other heterocycles for treating brain disorders” (The Regents of the University of California, priority 2019, dated 2022)

System: C57/BL6J mice
Assay: Forced swim test (FST)
Type: in vivo, mouse
Conditions: 24 h after drug administration; i.p., compounds 20 mg/kg, ketamine 3 mg/kg
Procedure: Forced Swim Test. As increased cortical structural plasticity in the anterior parts of the brain mediates the sustained (>24 h) antidepressant-like effects of ketamine and play a role in the therapeutic effects of 5-HT2A agonists, the impact of IsoDMT analogs on forced swim test (FST) behavior (FIG. 14A and FIG. 14B) was evaluated. First, a pretest was used to induce a depressive phenotype. Compounds were administered 24 h after the pre-test, and the FST was performed 24 h and 7 d post drug administration.
Forced Swim Test (FST). Male C57/BL6J mice (9-10 weeks old at time of experiment) were obtained from the Jackson Lab and housed 4-5 mice/cage in a UCD vivarium following an IACUC approved protocol. After 1 week in the vivarium each mouse was handled for approximately 1 minute by a experimenter for 3 consecutive days leading up to the first FST. […] Immobility scores for all mice were determined after the pre-test and mice were randomly assigned to treatment groups to generate groups with similar average immobility scores to be used for the following two FST sessions. […] Experiments were video-recorded and manually scored offline. Immobility time—defined as passive floating or remaining motionless with no activity other than that needed to keep the mouse's head above water—was scored for the last 4 min of the 6 min trial.

## COc1ccc2c(ccn2C[C@@H](C)N(C)C)c1 [Example 59, (R)-1-(5-methoxy-1H-indol-1-yl)-N,N-dimethylpropan-2-amine]
  immobility in forced swim test: significantly reduced immobility
